Experimental data as given in patent US20120128580A1, “PRESELECTION OF SUBJECTS FOR THERAPEUTIC TREATMENT WITH ELESCLOMOL BASED ON HYPOXIC STATUS” (SYNTA PHARMACEUTICALS CORP., priority 2010, published 2012).

How the values were obtained:
cancer [1] = assay: Chart review of treatment outcomes by level of hypoxia; assay type: in vivo, human
Method: A chart review analysis is performed to determine the efficacy of elesclomol for the treatment of cancer based on the level of hypoxia of the tumor based on markers assessed during the treatment of the subjects. […] Subjects who were treated with elesclomol for whom no levels of hypoxic markers were determined can be used as an unstratified control group to understand the efficacy of elesclomol on a treatment population not selected based on the level of hypoxia in the subject/tumor. Alternatively, the population analyzed in the study for which hypoxia levels (e.g., LDH marker levels) can be compared to historical control samples in which an unstratified population was analyzed for response to elesclomol. […] Preferably, the same marker(s) of hypoxia is measured in each of the subjects, e.g., at least one isoform or subunit of lactate dehydrogenase (LDH) or hypoxia inducible factor (HIF); at least one pro-angiogenic form of vascular endothelial growth factor (VEGF), phosphorylated VEGF receptor (pKDR) 1, 2, or 3; neurolipin 1 (NRP-1), pyruvate dehydrokinase (PDH-K), and ornithine decarboxylase (ODC). […]

cancer [2] = assay: Treatment outcomes by level of hypoxia in historical samples; assay type: in vivo, human
Method: An analysis using samples collected from subjects during treatment is performed to determine the efficacy of elesclomol for the treatment of cancer based on the level of hypoxia of the tumor based on markers assessed prior to and/or during the treatment of the subjects. […] The samples are analyzed for the level of hypoxia based on the amount or activity of a marker present. […] Various portions of the tumor tissue can also be analyzed when sufficient material is available, e.g., adjacent to the necrotic core, in the center of the tumor, adjacent to or including tumor vasculature, adjacent to normal tissue, etc. One or more markers of hypoxia are measured in each of the subjects, e.g., at least one isoform or subunit of lactate dehydrogenase (LDH) or hypoxia inducible factor (HIF); at least one pro-angiogenic form of vascular endothelial growth factor (VEGF), phosphorylated VEGF receptor (pKDR) 1, 2, or 3, neurolipin 1 (NRP-1), pyruvate dehydrokinase (PDH-K), and ornithine decarboxylase (ODC). […]

## CN(NC(=O)CC(=O)NN(C)C(=S)c1ccccc1)C(=S)c1ccccc1 [Elesclomol, N-malonyl-bis(N′-methyl-N′-thiobenzoylhydrazide)]
Cancer [1]
  response of subjects with a low level of hypoxia compared to a high level of hypoxia: better response
Cancer [2]
  response of subjects with a low level of hypoxia compared to a high level of hypoxia: better response
